One block for each compound: values may come before it. Active and inactive are the calls of the source.
Experiments:
Interleukin-8 [1] = target: T1, Interleukin-8 (Homo sapiens, UniProt P10145); assay: Dose Response confirmation of uHTS small molecule hits for cystic fibrosis induced NFkb Inhibitors in a PAF-induced IL8 counterscreen.; assay type: functional; conditions: read-out: IC50_Mean
T1 sequence (P10145 whole entry): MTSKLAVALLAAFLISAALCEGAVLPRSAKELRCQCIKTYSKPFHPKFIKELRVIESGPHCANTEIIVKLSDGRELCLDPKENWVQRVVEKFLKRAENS

Interleukin-8 [2] = target: T1, Interleukin-8; assay: Dose Response confirmation of uHTS small molecule hits for cystic fibrosis induced NFkb Inhibitors in a TNFa-induced IL8 counterscreen.; assay type: functional; conditions: read-out: IC50_Mean
[3] = target: Photoreceptor-specific nuclear receptor (Homo sapiens, UniProt Q9Y5X4); assay type: functional, cell-based;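 further: CHO-S cells with Gal4-NCOR and VP16-NR2E3 two-hybrid luciferase reporter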
Chain of Photoreceptor-specific nuclear receptor (Q9Y5X4 whole entry, the tested form may be a part): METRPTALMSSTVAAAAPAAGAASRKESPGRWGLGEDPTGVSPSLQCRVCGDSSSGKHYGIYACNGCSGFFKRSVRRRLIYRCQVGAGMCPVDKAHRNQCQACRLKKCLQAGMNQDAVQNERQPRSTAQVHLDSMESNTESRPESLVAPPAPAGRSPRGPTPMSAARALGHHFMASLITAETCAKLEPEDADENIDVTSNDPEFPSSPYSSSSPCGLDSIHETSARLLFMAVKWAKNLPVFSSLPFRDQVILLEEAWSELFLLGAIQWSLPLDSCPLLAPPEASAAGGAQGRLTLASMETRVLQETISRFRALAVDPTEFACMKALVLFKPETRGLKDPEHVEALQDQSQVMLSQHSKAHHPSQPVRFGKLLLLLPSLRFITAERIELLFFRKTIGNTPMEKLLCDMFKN

P388 = assay: cells; assay type: functional; conditions: Mus musculus
P388/ADR = assay: cells; assay type: functional; conditions: Mus musculus, P388/ADR
SN12K1 = assay: cells; assay type: functional; conditions: Homo sapiens
[4] = Shn3 3'UTR reporter inhibitors, dose response, cell-based, Clone20 osteoblasts, firefly luciferase, cherry-picked (AID 624132); assay type: functional;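 further: firefly luciferase luminescence from reporter carrying the Shn3 3'UTR in osteoblasts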
[5] = control 3'UTR Renilla luciferase suppression, dose response, counter-screen for Shn3 inhibitor project, cell-based, Clone20-Shn3RL, cherry-picked (AID 624133); assay type: functional
[6] = HepG2 cell cytotoxicity, dose response, cytotoxicity control for Shn3 inhibitor project, CellTiter-Glo, cherry-picked (AID 624134); assay type: functional, cell-based
[7] = target: 72 kDa type IV collagenase (Homo sapiens, UniProt P08253); assay: Dose Response validation of uHTS RPN11 inhibitor hits using a MMP-2 Fluorescence assay.; assay type: functional
Chain of 72 kDa type IV collagenase (P08253 whole entry): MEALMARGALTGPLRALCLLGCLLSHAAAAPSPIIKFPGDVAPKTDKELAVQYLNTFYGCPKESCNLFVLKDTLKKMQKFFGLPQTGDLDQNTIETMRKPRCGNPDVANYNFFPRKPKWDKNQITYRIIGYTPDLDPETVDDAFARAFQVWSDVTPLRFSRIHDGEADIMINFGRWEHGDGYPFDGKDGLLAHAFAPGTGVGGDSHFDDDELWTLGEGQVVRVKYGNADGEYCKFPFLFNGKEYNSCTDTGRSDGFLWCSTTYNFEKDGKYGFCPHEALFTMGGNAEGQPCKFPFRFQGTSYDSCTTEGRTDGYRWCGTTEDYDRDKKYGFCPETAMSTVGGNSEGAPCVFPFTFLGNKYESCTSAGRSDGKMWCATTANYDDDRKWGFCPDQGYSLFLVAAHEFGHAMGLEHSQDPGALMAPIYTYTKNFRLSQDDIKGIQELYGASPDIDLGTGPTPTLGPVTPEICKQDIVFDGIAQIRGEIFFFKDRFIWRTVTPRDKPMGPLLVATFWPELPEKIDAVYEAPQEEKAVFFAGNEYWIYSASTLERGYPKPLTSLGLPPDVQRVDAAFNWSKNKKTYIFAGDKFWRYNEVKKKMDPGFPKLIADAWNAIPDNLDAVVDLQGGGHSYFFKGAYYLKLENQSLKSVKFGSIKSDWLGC

Prothrombin = Prothrombin (Bos taurus, UniProt P00735); assay: thrombin inhibition, dose response, biochemical, fluorescence polarization, uHTS hits (AID 602369); assay type: functional
[8] = target: 26S proteasome non-ATPase regulatory subunit 14 (Homo sapiens, UniProt O00487); assay: inhibition of proteasome subunit RPN11 – biochemical, fluorescence polarization, uHTS hits, confirmation (AID 602368); assay type: functional
Chain of 26S proteasome non-ATPase regulatory subunit 14 (O00487 whole entry): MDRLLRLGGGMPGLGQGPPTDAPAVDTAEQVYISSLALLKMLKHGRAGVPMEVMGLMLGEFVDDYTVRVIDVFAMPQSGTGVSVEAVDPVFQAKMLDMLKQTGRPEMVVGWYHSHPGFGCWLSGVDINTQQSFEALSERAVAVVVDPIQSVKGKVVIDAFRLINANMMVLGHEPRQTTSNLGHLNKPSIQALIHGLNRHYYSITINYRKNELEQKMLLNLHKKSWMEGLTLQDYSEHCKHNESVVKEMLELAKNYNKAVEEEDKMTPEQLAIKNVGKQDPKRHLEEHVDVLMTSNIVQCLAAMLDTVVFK

Cysteine protease ATG4B = target: T2, Cysteine protease ATG4B (Homo sapiens, UniProt Q9Y4P1); assay type: functional;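 further: Fluorescence-based dose-response confirmation assay measuring inhibition of ATG4B activity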
T2 sequence (Q9Y4P1 whole entry): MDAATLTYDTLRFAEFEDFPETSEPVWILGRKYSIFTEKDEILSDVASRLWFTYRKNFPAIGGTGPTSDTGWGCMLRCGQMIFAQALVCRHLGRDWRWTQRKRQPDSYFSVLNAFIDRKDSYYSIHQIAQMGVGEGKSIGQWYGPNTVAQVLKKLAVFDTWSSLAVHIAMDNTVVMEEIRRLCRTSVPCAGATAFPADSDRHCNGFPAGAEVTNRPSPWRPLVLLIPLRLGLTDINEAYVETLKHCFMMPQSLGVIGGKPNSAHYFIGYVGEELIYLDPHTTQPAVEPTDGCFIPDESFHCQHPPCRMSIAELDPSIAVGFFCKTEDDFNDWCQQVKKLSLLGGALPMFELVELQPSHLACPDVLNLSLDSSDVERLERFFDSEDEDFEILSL

[9] = target: T3, Tyrosine-protein phosphatase non-receptor type 7 (Homo sapiens, UniProt P35236); assay: inhibitors of human HePTP phosphatase, […], biochemical, absorbance, leukemia target (AID 521); assay type: functional
T3 sequence (P35236 whole entry): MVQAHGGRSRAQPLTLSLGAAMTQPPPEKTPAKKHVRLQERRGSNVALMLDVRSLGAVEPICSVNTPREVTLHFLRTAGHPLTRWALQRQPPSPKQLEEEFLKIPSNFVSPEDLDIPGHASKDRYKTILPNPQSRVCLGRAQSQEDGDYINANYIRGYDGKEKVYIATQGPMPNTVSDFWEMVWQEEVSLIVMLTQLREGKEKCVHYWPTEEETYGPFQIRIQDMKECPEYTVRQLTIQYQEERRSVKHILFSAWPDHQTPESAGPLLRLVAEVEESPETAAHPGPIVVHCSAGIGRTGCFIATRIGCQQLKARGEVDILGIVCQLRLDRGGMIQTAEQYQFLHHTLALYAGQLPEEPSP

[10] = target: Disintegrin and metalloproteinase domain-containing protein 17 (Homo sapiens, UniProt P78536); assay: ADAM17 protease inhibitors, dose response, counter-screen for ADAM10 exosite inhibitor project, biochemical, quenched FRET substrate (AID 743253)
Chain of Disintegrin and metalloproteinase domain-containing protein 17 (P78536 whole entry, the tested form may be a part): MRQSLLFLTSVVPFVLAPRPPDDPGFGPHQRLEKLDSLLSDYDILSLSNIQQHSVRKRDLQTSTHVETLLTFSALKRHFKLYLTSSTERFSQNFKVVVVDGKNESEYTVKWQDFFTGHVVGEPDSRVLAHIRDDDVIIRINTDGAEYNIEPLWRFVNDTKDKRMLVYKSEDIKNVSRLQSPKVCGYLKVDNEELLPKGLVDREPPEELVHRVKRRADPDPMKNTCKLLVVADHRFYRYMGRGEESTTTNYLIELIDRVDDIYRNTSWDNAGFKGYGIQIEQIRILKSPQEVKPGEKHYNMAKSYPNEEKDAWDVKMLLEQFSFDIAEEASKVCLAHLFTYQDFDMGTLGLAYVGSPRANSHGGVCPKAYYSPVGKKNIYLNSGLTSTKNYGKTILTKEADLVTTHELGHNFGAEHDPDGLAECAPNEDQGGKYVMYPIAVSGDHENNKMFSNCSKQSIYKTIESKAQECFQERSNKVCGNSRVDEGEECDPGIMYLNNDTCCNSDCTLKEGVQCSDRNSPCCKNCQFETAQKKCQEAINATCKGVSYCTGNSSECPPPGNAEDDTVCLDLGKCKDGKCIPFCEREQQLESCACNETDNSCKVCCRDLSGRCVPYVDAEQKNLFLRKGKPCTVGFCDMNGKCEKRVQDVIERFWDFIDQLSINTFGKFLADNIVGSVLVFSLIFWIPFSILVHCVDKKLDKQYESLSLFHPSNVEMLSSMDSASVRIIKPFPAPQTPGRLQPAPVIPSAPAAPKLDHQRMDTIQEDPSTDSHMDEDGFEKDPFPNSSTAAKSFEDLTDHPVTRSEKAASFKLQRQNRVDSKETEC

Phospholipase A2 = Phospholipase A2 (Homo sapiens, UniProt P04054); assay type: functional;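 further: confirmatory dose-response counterscreen on phospholipase A2, testing hits that came from an ultra-high-throughput screen for ATG4B inhibitors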
Chain of Phospholipase A2 (P04054 whole entry): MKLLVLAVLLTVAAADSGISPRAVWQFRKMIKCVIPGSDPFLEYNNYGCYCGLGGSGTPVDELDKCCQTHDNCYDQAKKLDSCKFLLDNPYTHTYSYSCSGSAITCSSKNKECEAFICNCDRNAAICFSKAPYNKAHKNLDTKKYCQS

Compound: Cc1ccc(/N=C/c2cc3c(cc2O)OC(N)=C(C#N)C3c2ccccc2)cc1 (stereo unspecified)
IC50 (Interleukin-8 [1]): 5.76 µM (active)
IC50 (Interleukin-8 [2]): > 79 µM (inactive)

Compound: N/C(=N\O)N/N=C/c1ccc2c(c1)OCCO2
GI50 (P388): 13.1 µM (inactive)
GI50 (P388/ADR): 12.8 µM (inactive)
GI50 (SN12K1): 2.88 µM (inactive)

Compound: Cc1n[nH]c2ccc(-c3cncc(OC[C@@H](N)Cc4c[nH]c5ccccc45)c3)cc12 [A-443654]
AC50 [4]: 1.77 µM (active)
AC50 [5]: 2.85 µM (active)
AC50 [6]: 7.4 µM (active)

Compound: COc1ccc(-c2n[nH]c(C(F)(F)F)c2-c2cc3ccccc3o2)c(O)c1
IC50 (Cysteine protease ATG4B): 9.42 µM (active)
IC50 [9]: > 100 µM (not active)
IC50 [10]: > 69.5 µM (inactive)
IC50 (Phospholipase A2): 7.64 µM (active)

Compound: O=[N+]([O-])c1cc(C(F)(F)F)cc2c1SC1=Nc3ccccc3CN12
GI50 (P388): > 100 µM (inactive)
GI50 (P388/ADR): > 100 µM (inactive)
GI50 (SN12K1): > 100 µM (inactive)

The next lines start with the values.

IC50 [3]: 4.19 µM (active)
Compound: Cc1nc(NC(=O)c2c(-c3ccccc3Cl)noc2C)sc1C

IC50 (Interleukin-8 [1]): 9.42 µM (active)
IC50 (Interleukin-8 [2]): 3.19 µM (active)
Compound: O=C(CC12CC3CC(CC(C3)C1)C2)Nc1nncs1

IC50 [7]: > 100 µM (inactive)
IC50 (Prothrombin): 13.1 µM (active)
IC50 [8]: 17.8 µM (active)
Compound: CCOC(=O)C1=C(Nc2ccc(OC)cc2)S/C(=C\c2ccc(-c3ccccc3C(=O)O)o2)C1=O

Source: ChEMBL document CHEMBL1201862, “PubChem BioAssay data set” (2004)
